Results on 28 compounds are retold here after patent EP0342003B1, “Use of 15-ketoprostaglandin E or F compounds for uterine contraction” (Kabushiki Kaisha Ueno Seiyaku Oyo Kenkyujo, priority 1988, dated 1989).

In one test the test system is ileum. In words: Intestinal contraction of an isolated ileum section in a Magnus tube (reference example). It counts as cell-based, Wistar rat. To be noted: result in words. How it is done:
Test Example 3 (Intestinal contraction ... Reference example)
A section was cut off from ileum of a Wistar rat (male) and hung in a Magnus tube. The section was contracted several times by administering acetylcholine (1x10⁻⁶ g/ml) and received test compounds after giving two or more contractions of the same intensity. Contractions obtained by the test compounds were expressed as a ratio to the contraction by acetylcholine (1x10⁻⁶ g/ml) which was taken as 100%, and EC₅₀ values were calculated as a concentrations for 50% contraction.

Another test deals with uterus. The test is described as follows: Uterine contraction of an isolated uterus section in a Magnus tube. It counts as cell-based. To be noted: Rattus norvegicus, ratio to contraction by oxytocin (1mU) taken as 100%; for activation at 1 µM: Dose 1x10^-6 M; for activation at 0.3 µM: Dose 3x10⁻⁷ M. As for the experimental part:
Test Example 1 (Uterine contraction)
An estrous rat (female, 150g) was used as test animals. The rat was sacrificed by bleeding and uterus was extirpated. A section of about 2.0cm was cut off and hung in a Magnus tube containing Tyrode solution or Beauvillain solution.
The section of uterus was held for about 5 minutes until it because stable and then contracted several times by administering oxytocin (1mU). After stable contraction was obtained, the section received test compounds. Contractions obtained by the test compounds were expressed as a ratio to the contraction by oxytocin which was taken as 100%. The results are shown in Table 1 (15-keto-PGE derivatives) and Table 2 (15-keto-PGF derivatives).

With `CCCCCC(=O)CC[C@@H]1[C@@H](C/C=C\CCCC(=O)OC)[C@@H](O)C[C@H]1O` [13,14-dihydro-15-keto-PGF2α methyl ester], the intestinal contraction result in the test on ileum was “without intestinal contraction”.

Regarding `CCCCC(F)C(=O)CC[C@H]1[C@H](O)CC(=O)[C@@H]1CC(=O)CCCCC(=O)OCC` (stereo partly shown) [X-1, 13,14-dihydro-6,15-diketo-16R,S-fluoro-PGE1 ethyl ester], in the test with uterus (Table 1, Dose 1x10^-4 M), the activation at 100 µM is 86%.

In the case of `CCCCC(F)C(=O)CC[C@H]1[C@H](C)CC(=O)[C@@H]1CC(=O)CCCCC(=O)OCC` (stereo partly drawn) [X-2, 13,14-dihydro-6,15-diketo-16R,S-fluoro-11-dehydroxy-11R-methyl-PGE1 ethyl ester], the activation at 10 µM in the test on uterus (Table 1, Dose 1x10^-5 M) was determined as 82%.

For the compound `CCCCC(O)C(=O)CC[C@H]1[C@H](O)CC(=O)[C@@H]1C/C=C\CCCC(=O)OCC` (stereo partly shown) [X-3, 13,14-dihydro-15-keto-16R,S-hydroxy-PGE2 ethyl ester], the activation at 100 µM with uterus (Table 1, Dose 1x10^-4 M) amounted to 50%.

As for `CCCCC(F)C(=O)CC[C@H]1[C@H](O)CC(=O)[C@@H]1C/C=C\CCCC(=O)O` (stereo partly shown) [X-4, 13,14-dihydro-15-keto-16R,S-fluoro-PGE2], the activation at 1 µM in the test on uterus (Table 1) came to 87%.

For the compound `CCCCC(F)C(=O)CC[C@H]1[C@H](O)CC(=O)[C@@H]1C/C=C\CCCC(=O)OC` (stereo partly shown) [X-5, 13,14-dihydro-15-keto-16R,S-fluoro-PGE2 methyl ester], in the test on uterus (Table 1, Dose 3x10^-6 M), the activation at 3 µM came out at 64%.

With `CCCCC(F)C(=O)CC[C@H]1[C@H](O)CC(=O)[C@@H]1C/C=C\CCCC(=O)OCC` (stereo partly shown) [X-6, 13,14-dihydro-15-keto-16R,S-fluoro-PGE2 ethyl ester], the activation at 10 µM with uterus (Table 1, Dose 1x10^-5 M) amounted to 89%.

Take `CCCCC(F)C(=O)CC[C@H]1[C@H](C)CC(=O)[C@@H]1C/C=C\CCCC(=O)OCC` (stereo partly drawn) [X-7, 13,14-dihydro-15-keto-16R,S-fluoro-11-dehydroxy-11R-methyl-PGE2 ethyl ester]: the activation at 100 µM with uterus (Table 1, Dose 1x10^-4 M) amounted to 50%.

Turning to `COCCCCC(C)(C)C(=O)CC[C@H]1[C@H](O)CC(=O)[C@@H]1C/C=C\CCCC(=O)OC` [X-8], the activation at 10 µM in the test with uterus (Table 1, Dose 1x10^-5 M) turned out to be 64%.

Turning to `CCCCC(F)C(=O)/C=C/[C@H]1[C@H](O)CC(=O)[C@@H]1C/C=C\CCCC(=O)OC` (stereo partly shown) [X-9], the activation at 10 µM in the test with uterus (Table 1, Dose 1x10^-5 M) was 84%.

Consider `CCCCCC(F)C(=O)CC[C@H]1[C@H](O)CC(=O)[C@@H]1C/C=C\CCCC(=O)OC` (stereo partly shown) [X-10], for which the activation at 10 µM with uterus (Table 1, Dose 1x10^-5 M) was 80%.

For the compound `CCCCC(F)C(=O)/C=C/[C@H]1[C@H](O)CC(=O)[C@@H]1C/C=C\CCCC(=O)O` (stereo partly shown) [X-11], the activation at 1 µM with uterus (Table 1) was determined as 80%.

Consider `CCCCC(F)C(=O)CC[C@H]1[C@H](O)CC(=O)[C@@H]1CCCCCCC(=O)O` (stereo partly shown) [X-12], for which the activation at 1 µM in the test on uterus (Table 1) was 34%.

As for `CCCCC(F)(F)C(=O)CC[C@H]1[C@H](O)CC(=O)[C@@H]1C/C=C\CCCC(=O)OC` [X-13], the activation at 1 µM with uterus (Table 1) stood at 63%.

As to `CCCCC(F)(F)C(=O)CC[C@H]1[C@H](O)CC(=O)[C@@H]1C/C=C\CCCC(=O)O` [X-14], the activation at 1 µM with uterus (Table 1) was found to be 81%.

In the case of `O=C(O)CCC/C=C\C[C@H]1C(=O)C[C@@H](O)[C@@H]1CCC(=O)COc1cccc(C(F)(F)F)c1` [X-15], in the test on uterus (Table 1), the activation at 1 µM is 32%.

For the compound `CCCCC(F)C(=O)CC[C@@H]1[C@@H](C/C=C\CCCC(=O)O)[C@@H](O)C[C@H]1O` (stereo partly drawn) [Y-1, 13,14-dihydro-15-keto-16R,S-fluoro-PGF2α], in the test on uterus (Table 2), the activation at 0.3 µM was determined as 89%.

For the compound `CCCCC(F)C(=O)CC[C@@H]1[C@@H](C/C=C\CCCC(=O)OC)[C@@H](O)C[C@H]1O` (stereo partly drawn) [Y-2, 13,14-dihydro-15-keto-16R,S-fluoro-PGF2α methyl ester], in the test with uterus (Table 2, Dose 3x10⁻⁶ M), the activation at 3 µM was 70%.

For `CCCCC(F)(F)C(=O)CC[C@@H]1[C@@H](C/C=C\CCCC(=O)OC)[C@@H](O)C[C@H]1O` [Y-3, 13,14-dihydro-15-keto-16,16-difluoro-PGF2α methyl ester], the activation at 3 µM with uterus (Table 2, Dose 3x10⁻⁶ M) is 82%.

For `CCCCC(F)C(=O)CC[C@@H]1[C@@H](C/C=C\CCCC(=O)OCC)[C@@H](O)C[C@H]1C` (stereo partly drawn) [Y-4, 13,14-dihydro-15-keto-16R,S-fluoro-11-dehydroxy-11R-methyl-PGF2α ethyl ester], the activation at 100 µM in the test on uterus (Table 2, Dose 1x10⁻⁴ M) stood at 50%.

As for `CCCCCC(F)C(=O)CC[C@@H]1[C@@H](C/C=C\CCCC(=O)OC)[C@@H](O)C[C@H]1O` (stereo partly drawn) [Y-5, 13,14-dihydro-15-keto-16R,S-fluoro-20-methyl-PGF2α methyl ester], the activation at 3 µM with uterus (Table 2, Dose 3x10⁻⁶ M) turned out to be 42%.

In the case of `CCCCCCC(F)C(=O)CC[C@@H]1[C@@H](C/C=C\CCCC(=O)O)[C@@H](O)C[C@H]1O` (stereo partly drawn) [Y-6, 13,14-dihydro-15-keto-20-ethyl-16R,S-fluoro-PGF2α], the activation at 0.3 µM in the test on uterus (Table 2) is 92%.

For the compound `CCCCCCC(F)C(=O)CC[C@@H]1[C@@H](C/C=C\CCCC(=O)OC)[C@@H](O)C[C@H]1O` (stereo partly drawn) [Y-7, 13,14-dihydro-15-keto-20-ethyl-16R,S-fluoro-PGF2α methyl ester], in the test on uterus (Table 2, Dose 1x10⁻⁵ M), the activation at 10 µM was found to be 85%.

In the case of `CCCCCCC(F)C(=O)CC[C@@H]1[C@@H](C/C=C\CCCC(=O)OC)[C@@H](O)C[C@H]1C` (stereo partly drawn) [Y-8, 13,14-dihydro-15-keto-20-ethyl-16R,S-fluoro-11-dehydroxy-11R-methyl-PGF2α methyl ester], in the test with uterus (Table 2, Dose 1x10⁻⁴ M), the activation at 100 µM was 50%.

With `COCCCCCC(=O)CC[C@@H]1[C@@H](C/C=C\CCCC(=O)OC)[C@@H](O)C[C@H]1O` [Y-9, 13,14-dihydro-15-keto-20-methoxy-PGF2α methyl ester], in the test with uterus (Table 2, Dose 1x10⁻⁴ M), the activation at 100 µM was found to be 50%.

On to `COC(=O)CCC/C=C\C[C@@H]1[C@@H](CCC(=O)COc2cccc(C(F)(F)F)c2)[C@H](O)C[C@@H]1O` [Y-10, 13,14-dihydro-15-keto-16-desbutyl-16-m-trifluoromethylphenoxy-PGF2α methyl ester], for which the activation at 0.3 µM with uterus (Table 2) was found to be 92%.

For the compound `CCCCC(F)C(=O)/C=C/[C@@H]1[C@@H](C/C=C\CCCC(=O)OC)[C@@H](O)C[C@H]1O` (stereo partly drawn) [Y-11, 15-keto-16R,S-fluoro-PGF2α methyl ester], in the test on uterus (Table 2, Dose 1x10⁻⁵ M), the activation at 10 µM is 95%.

With `O=C(O)CCC/C=C\C[C@@H]1[C@@H](CCC(=O)COc2cccc(C(F)(F)F)c2)[C@H](O)C[C@@H]1O` [Y-12, 13,14-dihydro-15-keto-16-desbutyl-16-m-trifluoromethylphenoxy-PGF2α], the activation at 0.1 µM in the test on uterus (Table 2, Dose 1x10⁻⁷ M) was determined as 52%.
